The values that follow are results of earlier work, collected in US9624258B2, “Polymorph of regadenoson” (Biophore India Pharmaceuticals PVT. Ltd., priority 2013, dated 2017).

Series [1] addresses A2A adenosine receptor (Homo sapiens, UniProt P29274). Conditions: background statement on compound of U.S. Pat. No. 6,403,567.
For series [2] the following is noted: background statement.

A2A adenosine receptor, sequence (P29274 whole entry): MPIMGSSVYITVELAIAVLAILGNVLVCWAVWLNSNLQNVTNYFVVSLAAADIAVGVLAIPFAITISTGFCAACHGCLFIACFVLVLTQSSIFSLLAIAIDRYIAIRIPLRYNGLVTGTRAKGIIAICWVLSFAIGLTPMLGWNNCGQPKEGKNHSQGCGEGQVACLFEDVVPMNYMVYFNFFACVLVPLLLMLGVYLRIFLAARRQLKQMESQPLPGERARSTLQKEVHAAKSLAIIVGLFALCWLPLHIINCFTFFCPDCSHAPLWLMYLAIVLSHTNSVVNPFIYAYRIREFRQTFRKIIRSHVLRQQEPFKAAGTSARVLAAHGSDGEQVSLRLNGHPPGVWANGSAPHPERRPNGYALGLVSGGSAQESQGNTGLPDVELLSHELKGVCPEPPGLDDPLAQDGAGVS

For `CNC(=O)c1cnn(-c2nc(N)c3ncn([C@@H]4O[C@H](CO)[C@@H](O)[C@H]4O)c3n2)c1` [Regadenoson, (1-{9-[(4S,2R,3R,5R)-3,4-dihydroxy-5-(hydroxymethyl)oxolan-2-yl)-6-aminopurin-2-yl}pyrazole-4-yl)-N-methylcarboxamide], the “A2A adenosine receptor agonist selectivity” value in series [1] was “highly selective A2A adenosine receptor agonist”. Besides, the biological half-life in series [2] is 2- to 3 minute.
